These results are taken from ChEMBL document CHEMBL1909536, “7-Oxopyrrolopyridine-derived DPP4 inhibitors-mitigation of CYP and hERG liabilities via introduction of polar functionalities in the active site” (Bioorg Med Chem Lett, 2011).

Data set [1] addresses T1, Cytochrome P450 3A4 (Homo sapiens, UniProt P08684). Briefly: Inhibition of CYP3A4 in presence of the substrate 7-bezyloxy-4-trifluoromethyl coumarin. The data set is classed as ADME.
The target in a further data set is hERG (KCNH2) (Homo sapiens, UniProt Q12809). The experiment in a line: (§1) Inhibition of human ERG at 10 uM by patch clamp assay. Conditions: INH. (In general: In patch-clamp work, channel activity is measured electrically.)
Sequence of hERG (KCNH2) (Q12809 whole entry): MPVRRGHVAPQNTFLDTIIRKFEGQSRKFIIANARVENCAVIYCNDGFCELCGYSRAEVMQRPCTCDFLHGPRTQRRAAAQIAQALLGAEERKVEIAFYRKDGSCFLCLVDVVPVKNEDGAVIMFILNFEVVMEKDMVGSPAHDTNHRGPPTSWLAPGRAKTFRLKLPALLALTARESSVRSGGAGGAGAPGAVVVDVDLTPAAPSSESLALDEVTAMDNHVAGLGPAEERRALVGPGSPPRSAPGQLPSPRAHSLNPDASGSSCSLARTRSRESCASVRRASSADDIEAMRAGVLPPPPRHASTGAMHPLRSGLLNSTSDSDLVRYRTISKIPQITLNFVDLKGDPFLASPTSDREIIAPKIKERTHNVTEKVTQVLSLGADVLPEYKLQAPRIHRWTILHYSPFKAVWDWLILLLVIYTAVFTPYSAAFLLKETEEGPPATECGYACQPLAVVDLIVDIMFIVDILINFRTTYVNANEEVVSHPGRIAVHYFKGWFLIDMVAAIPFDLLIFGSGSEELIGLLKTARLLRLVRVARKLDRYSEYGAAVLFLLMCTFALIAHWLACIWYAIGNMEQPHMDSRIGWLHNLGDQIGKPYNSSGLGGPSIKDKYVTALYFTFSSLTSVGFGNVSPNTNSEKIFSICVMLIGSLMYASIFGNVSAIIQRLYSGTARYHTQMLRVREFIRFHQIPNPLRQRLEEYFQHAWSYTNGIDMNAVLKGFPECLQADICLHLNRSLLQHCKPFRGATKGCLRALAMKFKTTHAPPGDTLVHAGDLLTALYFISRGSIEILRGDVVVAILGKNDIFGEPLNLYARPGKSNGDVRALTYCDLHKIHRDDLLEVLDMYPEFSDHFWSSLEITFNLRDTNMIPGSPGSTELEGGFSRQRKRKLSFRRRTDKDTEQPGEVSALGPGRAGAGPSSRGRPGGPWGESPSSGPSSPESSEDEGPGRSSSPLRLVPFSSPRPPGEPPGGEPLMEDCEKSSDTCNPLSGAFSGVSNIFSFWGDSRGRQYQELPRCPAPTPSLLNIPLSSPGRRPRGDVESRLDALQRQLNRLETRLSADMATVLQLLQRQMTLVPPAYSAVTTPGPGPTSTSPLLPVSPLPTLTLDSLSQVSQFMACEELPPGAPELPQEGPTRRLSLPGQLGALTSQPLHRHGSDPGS
The target in data set [2] is T1, Cytochrome P450 3A4. Briefly: Inhibition of CYP3A4 up to 40 uM. It counts as ADME.
Data set [3] is described as follows: Oral availability in rat. The data set is classed as ADME, organism-based. The settings on record: in vivo.
A short description of data set [4]: Half life in rat. It counts as ADME, organism-based. Conditions: in vivo; call rule not given here.
In the next data set the target is Dipeptidyl peptidase 8 (Homo sapiens, UniProt Q6V1X1). The experiment in a line: Inhibition of DPP8.
Sequence of Dipeptidyl peptidase 8 (Q6V1X1 whole entry): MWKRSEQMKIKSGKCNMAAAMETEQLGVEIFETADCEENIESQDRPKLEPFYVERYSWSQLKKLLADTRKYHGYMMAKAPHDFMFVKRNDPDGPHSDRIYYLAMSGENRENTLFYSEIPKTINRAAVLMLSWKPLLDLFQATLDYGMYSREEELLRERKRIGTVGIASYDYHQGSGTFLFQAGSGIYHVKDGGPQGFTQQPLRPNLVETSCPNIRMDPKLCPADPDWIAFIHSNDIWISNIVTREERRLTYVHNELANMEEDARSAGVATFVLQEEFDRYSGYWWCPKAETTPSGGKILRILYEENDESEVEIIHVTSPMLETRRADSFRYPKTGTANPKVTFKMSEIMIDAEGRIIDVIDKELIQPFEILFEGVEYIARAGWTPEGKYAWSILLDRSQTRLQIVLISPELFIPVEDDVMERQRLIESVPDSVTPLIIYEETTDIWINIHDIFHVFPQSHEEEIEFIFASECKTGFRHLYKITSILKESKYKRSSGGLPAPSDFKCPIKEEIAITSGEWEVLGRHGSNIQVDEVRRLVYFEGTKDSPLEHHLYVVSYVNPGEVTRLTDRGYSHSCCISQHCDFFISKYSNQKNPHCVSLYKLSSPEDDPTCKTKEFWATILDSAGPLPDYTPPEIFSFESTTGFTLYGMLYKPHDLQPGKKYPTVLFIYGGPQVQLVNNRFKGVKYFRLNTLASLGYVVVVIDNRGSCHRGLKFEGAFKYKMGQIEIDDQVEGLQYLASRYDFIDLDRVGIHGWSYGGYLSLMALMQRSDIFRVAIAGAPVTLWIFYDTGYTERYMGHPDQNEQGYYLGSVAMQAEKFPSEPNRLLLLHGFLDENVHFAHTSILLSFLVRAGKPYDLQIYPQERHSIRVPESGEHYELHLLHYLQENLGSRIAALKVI
Data set [5] deals with T1, Cytochrome P450 3A4. The experiment in a line: Inhibition of CYP3A4. The data set is classed as ADME.
A further data set concerns the target Dipeptidyl peptidase 9 (Homo sapiens, UniProt Q86TI2). Briefly: Inhibition of DPP9.
Another data set has as its target Dipeptidyl peptidase 4 (Homo sapiens, UniProt P27487). Briefly: Inhibition of DPP4.
Data set [6] is described as follows: Cmax in rat at 10 umol/kg. Further details: dose 10 umol/kg. Conditions: in vivo. It counts as ADME, organism-based.
For data set [7], the target named is T1, Cytochrome P450 3A4. The experiment in a line: Inhibition of CYP3A4 in presence of the substrate 7-bezyloxy resorufin. The data set is classed as ADME.
Data set [8] deals with T2, Nuclear receptor subfamily 1 group I member 2 (Homo sapiens, UniProt O75469).
T2 sequence (O75469 whole entry): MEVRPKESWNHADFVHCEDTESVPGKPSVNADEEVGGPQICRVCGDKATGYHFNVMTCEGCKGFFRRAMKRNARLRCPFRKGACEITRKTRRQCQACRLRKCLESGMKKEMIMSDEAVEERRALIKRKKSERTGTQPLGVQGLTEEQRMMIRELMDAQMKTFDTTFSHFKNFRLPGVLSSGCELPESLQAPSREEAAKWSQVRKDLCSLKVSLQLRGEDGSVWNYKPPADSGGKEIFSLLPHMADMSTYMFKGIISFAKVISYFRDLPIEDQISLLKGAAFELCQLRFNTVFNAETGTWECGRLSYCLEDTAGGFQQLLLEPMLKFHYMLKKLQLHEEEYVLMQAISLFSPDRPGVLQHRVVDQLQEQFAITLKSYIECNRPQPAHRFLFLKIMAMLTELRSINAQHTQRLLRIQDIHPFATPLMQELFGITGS
The experiment in a line: Inhibition of PXR.

The target in another data set is Cytochrome P450 2C19 (Homo sapiens, UniProt P33261). Briefly: Inhibition of CYP2C19. The data set is classed as ADME.
Sequence of Cytochrome P450 2C19 (P33261 whole entry): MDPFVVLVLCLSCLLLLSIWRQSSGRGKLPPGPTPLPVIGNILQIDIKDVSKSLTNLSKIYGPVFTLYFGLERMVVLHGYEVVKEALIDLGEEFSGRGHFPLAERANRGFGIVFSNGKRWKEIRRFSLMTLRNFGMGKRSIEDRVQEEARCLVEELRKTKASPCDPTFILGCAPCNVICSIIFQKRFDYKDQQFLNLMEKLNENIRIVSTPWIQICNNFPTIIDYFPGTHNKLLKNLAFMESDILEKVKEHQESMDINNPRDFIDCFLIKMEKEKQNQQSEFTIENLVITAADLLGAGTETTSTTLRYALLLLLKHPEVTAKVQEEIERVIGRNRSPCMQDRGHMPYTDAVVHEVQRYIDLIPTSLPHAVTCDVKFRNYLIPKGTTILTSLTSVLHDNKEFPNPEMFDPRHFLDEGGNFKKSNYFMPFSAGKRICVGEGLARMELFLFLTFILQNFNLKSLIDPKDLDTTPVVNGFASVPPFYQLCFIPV
For data set [9], the target named is T3, Voltage-gated inwardly rectifying potassium channel KCNH2 (Homo sapiens, UniProt Q12809).
T3 sequence (Q12809 whole entry): as the sequence (Q12809 whole entry) above
For data set [10], the target named is T3, Voltage-gated inwardly rectifying potassium channel KCNH2. Briefly: Inhibition of human ERG by flux assay.
The target is the same in data set [11]. The description is as §1. Conditions: 10 µM.
Data set [12] can be described thus: Tmax in rat at 10 umol/kg. Conditions: in vivo. It counts as ADME, organism-based.

pIC50, pKi: −log10 of the molar value. Where “and” joins values, the source holds several entries; their conditions need not be identical. Equal entries are not always repeated.

Sequence of Dipeptidyl peptidase 9 (Q86TI2 whole entry): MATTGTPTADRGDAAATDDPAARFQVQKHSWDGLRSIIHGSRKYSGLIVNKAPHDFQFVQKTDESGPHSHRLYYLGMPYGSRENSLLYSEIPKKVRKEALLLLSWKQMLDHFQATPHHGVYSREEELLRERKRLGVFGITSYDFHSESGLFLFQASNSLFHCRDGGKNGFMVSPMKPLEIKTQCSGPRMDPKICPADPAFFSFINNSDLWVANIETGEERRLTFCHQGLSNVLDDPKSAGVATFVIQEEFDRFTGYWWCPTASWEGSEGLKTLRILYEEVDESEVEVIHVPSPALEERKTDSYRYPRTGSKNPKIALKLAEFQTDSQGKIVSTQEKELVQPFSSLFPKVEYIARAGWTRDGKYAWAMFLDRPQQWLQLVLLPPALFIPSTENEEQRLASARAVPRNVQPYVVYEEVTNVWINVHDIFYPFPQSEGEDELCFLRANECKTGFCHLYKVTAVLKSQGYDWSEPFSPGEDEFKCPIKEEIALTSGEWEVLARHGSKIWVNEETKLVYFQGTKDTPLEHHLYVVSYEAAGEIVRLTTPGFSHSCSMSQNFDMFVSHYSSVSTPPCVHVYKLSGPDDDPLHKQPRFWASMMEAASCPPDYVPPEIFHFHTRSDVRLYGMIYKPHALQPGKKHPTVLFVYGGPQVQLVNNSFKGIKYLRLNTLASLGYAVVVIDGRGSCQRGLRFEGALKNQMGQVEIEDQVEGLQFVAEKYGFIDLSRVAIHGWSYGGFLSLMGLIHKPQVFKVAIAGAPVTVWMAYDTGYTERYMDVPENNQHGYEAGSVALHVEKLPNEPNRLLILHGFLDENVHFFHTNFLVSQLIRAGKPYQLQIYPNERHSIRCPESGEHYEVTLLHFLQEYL
T1 sequence (P08684 whole entry): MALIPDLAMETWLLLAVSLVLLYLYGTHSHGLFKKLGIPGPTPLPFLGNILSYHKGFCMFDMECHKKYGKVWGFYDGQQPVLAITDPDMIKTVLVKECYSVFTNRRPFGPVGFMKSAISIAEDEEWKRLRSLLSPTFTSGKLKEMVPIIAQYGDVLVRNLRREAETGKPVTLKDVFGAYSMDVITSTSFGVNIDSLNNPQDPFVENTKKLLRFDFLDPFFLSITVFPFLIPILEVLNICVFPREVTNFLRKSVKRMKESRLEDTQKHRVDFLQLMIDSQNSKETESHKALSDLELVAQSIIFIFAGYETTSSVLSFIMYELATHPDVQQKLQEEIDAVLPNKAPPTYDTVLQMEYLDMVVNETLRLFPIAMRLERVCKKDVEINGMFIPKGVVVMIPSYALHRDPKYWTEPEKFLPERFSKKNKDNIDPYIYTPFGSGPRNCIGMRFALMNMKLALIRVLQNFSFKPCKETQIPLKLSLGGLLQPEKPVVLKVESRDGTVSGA

`Cc1ccc(N2Cc3c(nc(C)c(CN)c3-c3ccc(Cl)cc3Cl)C2=O)cc1` (single isomer, unassigned; atropisomer): the negative-log IC50 (pIC50) at Cytochrome P450 3A4 [1] is 6.57. In addition, on hERG (KCNH2), the inhibition at 10 µM was 84%.
For the molecule `CC(=O)N1CCN(C(=O)CN2Cc3c(nc(C)c(CN)c3-c3ccc(Cl)cc3Cl)C2=O)CC1`, the negative logarithm of the IC50 (pIC50) at Cytochrome P450 3A4 [2] is less than 4.77.
With `Cc1nc2c(c(-c3ccc(Cl)cc3Cl)c1CN)CN(c1ccc(Cl)cc1)C2=O` (single isomer, unassigned; atropisomer), the pIC50 at Cytochrome P450 3A4 [1] is 6.41. Also, on hERG (KCNH2), the inhibition at 10 µM worked out at 82%.
`Cc1nc2c(c(-c3ccc(Cl)cc3Cl)c1CN)CN(c1ccccc1)C2=O` (single isomer, unassigned; atropisomer): at Cytochrome P450 3A4 [1], the negative-log IC50 (pIC50) is 5.92. The molecule further came in with an inhibition at 10 µM at hERG (KCNH2) of 69%. For the same molecule, in [3], the bioavailability was 78%. The same molecule gave a half-life in [4] of 4.4 h.
As for `Cc1nc2c(c(-c3ccc(Cl)cc3Cl)c1CN)CNC2=O` (single isomer, unassigned; atropisomer), on Cytochrome P450 3A4 [1], the pIC50 is less than 4.40. Besides, on hERG (KCNH2), the inhibition at 10 µM turned out to be 68%. The pKi at Dipeptidyl peptidase 8 and at Dipeptidyl peptidase 9 was less than 4.52 throughout. For the same molecule, at Cytochrome P450 3A4 [5], the “inhibition (INH)” value is on record as “Not Active”.
With `Cc1nc2c(c(-c3ccc(Cl)cc3Cl)c1CN)CN(CC(=O)N1CCCC1)C2=O` (single isomer, unassigned; atropisomer), on Cytochrome P450 3A4 [2], the negative-log IC50 (pIC50) is less than 4.77.
For the molecule `Cc1nc2c(c(-c3ccc(Cl)cc3Cl)c1CN)CN(c1ccc(C#N)cc1)C2=O` (single isomer, unassigned; atropisomer), the pIC50 at Cytochrome P450 3A4 [1] was 6.17. For the same molecule, at hERG (KCNH2), the inhibition at 10 µM was found to be 97%.
With `Cc1nc2c(c(-c3ccc(Cl)cc3Cl)c1CN)CN(CCO)C2=O` (single isomer, unassigned; atropisomer), on Cytochrome P450 3A4 [1], the pIC50 is less than 4.40. In addition, the negative logarithm of the Ki (pKi) at Dipeptidyl peptidase 8 was less than 4.52; at Dipeptidyl peptidase 4 it was 8.05; on Dipeptidyl peptidase 9, less than 4.52.
Molecule `Cc1nc2c(c(-c3ccc(Cl)cc3Cl)c1CN)CN(Cc1ccccc1)C2=O` (single isomer, unassigned; atropisomer) showed a Cmax in data set [6] of 500 nM. Further, the negative logarithm of the IC50 (pIC50) on Cytochrome P450 3A4 [1] is 5.55; on Cytochrome P450 3A4 [7], 5.85; on Cytochrome P450 2C19, 4.82. In [8], the EC20 worked out at 470 nM. Moreover, the EC60 in data set [8] was 1400 nM.
With `Cc1nc2c(c(-c3ccc(Cl)cc3Cl)c1CN)CN(CC(=O)NCc1cccnc1)C2=O`, the values for the negative-log IC50 (pIC50) (on Cytochrome P450 3A4 [2]; in [9]) were 5.15 and 4.10, respectively.
On to `Cc1nc2c(c(-c3ccc(Cl)cc3Cl)c1CN)CN(C)C2=O` (single isomer, unassigned; atropisomer), for which the pIC50 on Cytochrome P450 3A4 [1] is less than 4.40. Further, the negative logarithm of the Ki (pKi) is less than 4.52 at Dipeptidyl peptidase 8 and 7.54 at Dipeptidyl peptidase 4.
As for `Cc1nc2c(c(-c3ccc(Cl)cc3Cl)c1CN)CN(CC(=O)Nc1ccnn1C)C2=O`, the pIC50 against Cytochrome P450 3A4 [2] was less than 4.77.
On Dipeptidyl peptidase 4, `COc1cc2c(cc1OC)-c1nc(N)c(CN)c(-c3ccc(Cl)cc3Cl)c1C2` showed a pIC50 of 8.15.
`Cc1nc2c(c(-c3ccc(Cl)cc3Cl)c1CN)CN(CC(N)=O)C2=O` (single isomer, unassigned; atropisomer) showed a pIC50 at Cytochrome P450 3A4 [2] of less than 4.77.
In the case of `COC(=O)CN1Cc2c(nc(C)c(CN)c2-c2ccc(Cl)cc2Cl)C1=O` (single isomer, unassigned; atropisomer), the pIC50 at Cytochrome P450 3A4 [1] is 4.77.
In turn, `Cc1nc2c(c(-c3ccc(Cl)cc3Cl)c1CN)CN(Cc1ccccc1)C2` showed a Cmax in [6] of 76 nM. Further, the negative-log IC50 (pIC50) on Cytochrome P450 3A4 [1] was 6.11; on Cytochrome P450 3A4 [7], 6.47; on Cytochrome P450 2C19, 6.47. At hERG (KCNH2), this molecule registered an inhibition at 10 µM of 67%. In addition, the pKi at Dipeptidyl peptidase 8 and at Dipeptidyl peptidase 9 was less than 4.52 in each case. Also, in data set [8], the EC20 came to 1100 nM. In data set [8], the EC60 was determined as 3300 nM.
Molecule `Cc1nc2c(c(-c3ccc(Cl)cc3Cl)c1CN)CN(CC(=O)N1CCOCC1)C2=O` (single isomer, unassigned; atropisomer) had a pIC50 against Cytochrome P450 3A4 [2] of less than 4.77.
Regarding `Cc1nc2cn(Cc3ccccc3)cc2c(-c2ccc(Cl)cc2Cl)c1CN`, the pIC50 at Cytochrome P450 3A4 [1] was 5.96; in data set [10] it was 4.85; on Cytochrome P450 3A4 [7], 6.14; against Cytochrome P450 2C19, 6.02. For the same molecule, in data set [8], the 20% effect concentration (EC20) was 1900 nM. In [8], this molecule returned an EC60 greater than 5600 nM.
In the case of `Cc1nc2c(c(-c3ccc(Cl)cc3Cl)c1CN)CN(CC(=O)N1CCC(C(N)=O)CC1)C2=O` (single isomer, unassigned; atropisomer), the pIC50 at Cytochrome P450 3A4 [2] was less than 4.77.
With `COc1ccccc1N1Cc2c(nc(C)c(CN)c2-c2ccc(Cl)cc2Cl)C1=O` (atropisomer R), the pIC50 on Cytochrome P450 3A4 [1] is 5.82 and 5.89 and 5.66. Moreover, the INH in data set [11] was 67% and 68%. Further, the inhibition at 10 µM against hERG (KCNH2) amounted to 63%.
On to `Cc1nc2c(c(-c3ccc(Cl)cc3Cl)c1CN)CN(CC(=O)O)C2=O` (single isomer, unassigned; atropisomer), for which, on Cytochrome P450 3A4 [1], the negative-log IC50 (pIC50) is less than 4.40.
As for `NCc1c(-c2ccc(Cl)cc2Cl)cc(-c2ccccc2)nc1N`, the pIC50 against Dipeptidyl peptidase 4 is 6.04.
`Cc1nc2c(c(-c3ccc(Cl)cc3Cl)c1CN)CN(CC(=O)N1CCN(S(C)(=O)=O)CC1)C2=O` (single isomer, unassigned; atropisomer) showed a pIC50 against Cytochrome P450 3A4 [2] of less than 4.77.
With `COc1ccc(N2Cc3c(nc(C)c(CN)c3-c3ccc(Cl)cc3Cl)C2=O)cc1` (single isomer, unassigned; atropisomer), the negative-log IC50 (pIC50) on Cytochrome P450 3A4 [1] was 5.60. Further, testing at 10 µM on hERG (KCNH2) gave an inhibition of 67%.
Regarding `COCCN1Cc2c(nc(C)c(CN)c2-c2ccc(Cl)cc2Cl)C1=O` (single isomer, unassigned; atropisomer), the negative-log IC50 (pIC50) at Cytochrome P450 3A4 [1] is 4.66. This molecule also gave a negative-log Ki (pKi) on Dipeptidyl peptidase 9 of less than 4.52.
Consider `Cc1nc2c(c(-c3ccc(Cl)cc3Cl)c1CN)CN(CC(=O)N(C)C)C2=O` (single isomer, unassigned; atropisomer), for which, on Cytochrome P450 3A4 [2], the negative logarithm of the IC50 (pIC50) is less than 4.77.
In turn, `Cc1nc2c(c(-c3ccc(Cl)cc3Cl)c1CN)CN(CC(=O)N1CCN(C)CC1)C2=O` (atropisomer, axis not shown) had a pIC50 on Cytochrome P450 3A4 [2] of less than 4.77. Moreover, the values for the pKi on Dipeptidyl peptidase 4 and on Dipeptidyl peptidase 9 were 9.17 and less than 5.00, respectively.
`CNC(=O)CN1Cc2c(nc(C)c(CN)c2-c2ccc(Cl)cc2Cl)C1=O` (single isomer, unassigned; atropisomer): the Tmax in data set [12] is 0.417 h. Further, at Cytochrome P450 3A4 [2], the pIC50 is less than 4.77. This molecule also displayed a Cmax in [6] of 32 nM. Besides, in [8], the concentration for an effect of 20% (EC20) was greater than 50000 nM and the EC60 is greater than 50000 nM.
For the molecule `Cc1nc2c(c(-c3ccc(Cl)cc3Cl)c1CN)CN(c1ccc(F)cc1)C2=O` (single isomer, unassigned; atropisomer), the negative logarithm of the IC50 (pIC50) on Cytochrome P450 3A4 [1] was 5.85. This molecule displayed an inhibition at 10 µM against hERG (KCNH2) of 92%.
For the molecule `CCN(CC)C(=O)CN1Cc2c(nc(C)c(CN)c2-c2ccc(Cl)cc2Cl)C1=O`, on Cytochrome P450 3A4 [2], the pIC50 is less than 4.77.

By pIC50 is commonly meant the negative decadic logarithm of the IC50, by convention in mol/L. As usually defined, the inhibition is the share of the control response that was lost under treatment. Low values mean a weak effect, high ones a strong effect. In general, bioavailability refers to the share of a dose that reaches the circulation, judged against a reference dose that is usually intravenous. Read a low bioavailability as little systemic uptake. As a reminder, the half-life is how long it takes for the measured level to halve. The pKi is the negative decadic logarithm of the Ki, by convention in mol/L. By Cmax is commonly meant the maximum level reached in the sampled fluid or tissue. A word on the EC20: it is the concentration at which the effect reaches the 20% level. Low values mean greater potency, high ones weaker potency. Broadly, the Tmax is the time from dosing to the highest level.
